Laboratory results as given in PMC12587545, “Noncytotoxic polymyxin derivatives enhance antibiotic action against multidrug-resistant Gram-negative bacteria” (Antimicrobial Agents and Chemotherapy, 2025).
≈ marks a conversion by molar mass, not a printed value. Like-named read-outs stand apart in the source and are kept apart here. Blank lines part the entries; values can stand above or below the compound they belong to. Positions of bridges follow the written chain, without caps; N, C: chain ends. Non-standard residues stand in square brackets, D forms with d. Residues, ends and D or L forms follow the SMILES beside them. *: point of attachment. Agp = N=C(N)NC[C@H](N)C(=O)O; X1 = CC[C@H](C)CCCCC(=O)*; Octanoyl = CCCCCCCC(=O)*; Dab = NCC[C@H](N)C(=O)O; Dap = NC[C@H](N)C(=O)O

Tests used:
[1] = test system: A. baumannii; format: cell-based, Acinetobacter baumannii
Protocol: Gram-negative and Gram-positive bacterial isolates were grown in lysogeny broth (LB) and brain heart infusion, respectively, overnight in a shaking incubator at 250 rpm and at 37°C.
The antibacterial activity of the antibiotics and compounds was assessed using the broth microdilution assay in accordance with Clinical Laboratory Standards Institute (CLSI) guidelines ([36]), and by following a previously described protocol ([27][–][29], [54], [55]). Bacterial culture grown overnight was diluted in saline to 0.5 McFarland turbidity and was further diluted 1:50 in CAMHB to attain a final concentration of 5 × 10^5 colony-forming units (cfu)/mL for inoculation. The antibiotic or compound was serially diluted 2-fold in CAMHB on a 96-well plate and was incubated with equal volumes of bacterial inoculum overnight at 37°C. Wells containing only media were used as negative controls, and wells containing only bacteria were used as positive controls. Antibacterial activity was measured by the MIC, or the lowest concentration of agent required to inhibit visible bacterial growth. Turbidity was confirmed with a Molecular Devices (United States) EMax Plus microplate reader at a wavelength of 590 nm.

[2] = test system: P. aeruginosa; experiment: Checkerboard assay (antibiotic potentiation); format: cell-based, Pseudomonas aeruginosa; conditions: P. aeruginosa PAO1; compound alone
Protocol: The interaction between the compounds and the antibiotics was evaluated using the fractional inhibitory concentration (FIC) index. FIC indices of ≤0.5 is synergistic, 0.5 < × ≤ 4 is additive, whereas >4 is antagonistic ([34]).
Synergy was measured by the FIC index, which is the summation of the individual FICs of the antibiotic and the compound. The FIC is calculated by dividing the MIC of one agent in the presence of another by the MIC of the agent alone. […] The FBS studies were conducted by following a previously published protocol ([29], [50]). The FBS was inactivated by heating at 56°C for 30 min with constant swirling.

[3] = test system: P. aeruginosa
Protocol: (§1) The bacterial isolates were acquired from ATCC or the Canadian Ward Surveillance (CANWARD) study ([56]). CANWARD isolates were collected from infected patients admitted to participating medical centers across Canada.
(§2) The antibiotic or compound was serially diluted 2-fold in CAMHB on a 96-well plate and was incubated with equal volumes of bacterial inoculum overnight at 37°C. Wells containing only media were used as negative controls, and wells containing only bacteria were used as positive controls. Antibacterial activity was measured by the MIC, or the lowest concentration of agent required to inhibit visible bacterial growth. Turbidity was confirmed with a Molecular Devices (United States) EMax Plus microplate reader at a wavelength of 590 nm.

[4] = test system: E. coli; conditions: for Resistance phenotype of MDR clinical isolates (antibiotic susceptibility value): Table S4
Protocol: as §1
as §2, with “growth.” for “growth. Turbidity was confirmed with a Molecular Devices (United States) EMax Plus microplate reader at a wavelength of 590 nm.”

[5] = test system: A. baumannii; experiment: Checkerboard assay (antibiotic potentiation); format: cell-based, Acinetobacter baumannii; conditions: A. baumannii ATCC 17978; compound alone
Protocol: The interaction between the compounds and the antibiotics was evaluated using the fractional inhibitory concentration (FIC) index. FIC indices of ≤0.5 is synergistic, 0.5 < × ≤ 4 is additive, whereas >4 is antagonistic ([34]). […] .
as §1
The antibiotic and compounds were serially diluted 2-fold in CAMHB along the x- and y-axis, respectively, on a 96-well plate that was subsequently incubated with equal volumes of bacterial inoculum overnight at 37°C. Wells containing only media were used as negative controls, and wells containing only bacteria were used as positive controls. Synergy was measured by the FIC index, which is the summation of the individual FICs of the antibiotic and the compound. The FIC is calculated by dividing the MIC of one agent in the presence of another by the MIC of the agent alone. Turbidity was confirmed with a Molecular Devices (United States) EMax Plus microplate reader at a wavelength of 590 nm. The FBS studies were conducted by following a previously published protocol ([29], [50]). The FBS was inactivated by heating at 56°C for 30 min with constant swirling.

[6] = test system: HK-2; format: cell-based, human
Protocol: (§3) Kidney cell lines, HK-2 (CRL-2190) and RPTEC/TERT1 (CRL-4031), and neural cell lines, U-87 MG (HTB-14) and SK-N-SH (HTB-11), were obtained from American Type Culture Collection (ATCC). HK-2 cells were cultured in T75 flasks with keratinocyte serum-free medium supplemented with bovine pituitary extract, human epidermal growth factor, and 2.5% FBS. RPTEC/TERT1 cells were cultured in T75 flasks with Dulbecco’s modified Eagle’s medium:F12 supplemented with the ATCC (United States) human telomerase reverse transcriptase immortalized RPTEC growth kit, G418 (0.1 mg/mL final concentration), and 2% FBS. Both U-87 MG and SK-N-SH cells were cultured in minimal essential media supplemented with 10% FBS. The cells were incubated in a humidified atmosphere at 5% CO2 and at 37°C.
(§4) The cytotoxicity of the compounds toward the mammalian cell lines was assessed using the cell viability assay protocols as previously described ([29]). Designated wells in 96-well plates were seeded with HK-2 (5,000 cells), RPTEC/TERT1 (8,000 cells), U-87 MG (7,000 cells), or SK-N-SH (8,000 cells) in 50 µL. Blank wells received an identical volume of only media. After incubating the cells for 24 h, all wells were treated with varying concentrations of the compound and incubated for 48 h. Subsequently, PrestoBlue reagent (Invitrogen, United States) was added to the wells to a final concentration of 10% (vol/vol), and the plate was incubated for an additional 1 h. Fluorescence was measured with a SpectraMax M2 plate reader (Molecular Devices, United States), at excitation and emission wavelengths of 560 and 590 nm, respectively. Values from the blank wells were subtracted from the corresponding wells containing cells. The cell viability relative to the controls with vehicle was calculated and presented as mean ± standard deviation of at least two experiments with five replicates each. CC50 values were obtained using GraphPad Prism (version 10.4.1) by non-linear regression (four-parameter logistic fit).

[7] = test system: RPTEC/TERT1; format: cell-based, human; conditions: 48 h
Protocol: as §3, §4

[8] = cited from earlier work
Protocol: Although the amphiphilic nature of polymyxins is crucial to permeabilize the outer membrane, this property can also be detrimental as it increases binding affinity to serum proteins, thereby limiting bioavailability ([50]). […] To assess the impact of serum binding on antibiotic potentiation, FBS was added to the media to simulate these conditions (Table 10). Zoliflodacin potentiation by compound 1 was diminished with increasing ...

[9] = test system: SK-N-SH; experiment: Cell viability assay (PrestoBlue); format: cell-based; conditions: SK-N-SH
Protocol: as §3
as §4, with “After incubating the cells for 24 h, all wells were treated with varying concentrations of the compound and incubated for 48 h.” left out

[10] = test system: U-87 MG; experiment: Cell viability assay (PrestoBlue); format: cell-based; conditions: U-87 MG
Protocol: as §3
as §4, with “After incubating the cells for 24 h, all wells were treated with varying concentrations of the compound and incubated for 48 h.” left out

[11] = test system: E. cloacae
Protocol: as §1, §2

[12] = test system: K. pneumoniae
Protocol: as §1, §2

[13] = A. baumannii 92247, colistin-resistant
[14] = E. cloacae 121887, colistin-resistant
[15] = K. pneumoniae 113250, colistin-resistant
[16] = P. aeruginosa 259-96916, clinical isolate
[17] = P. aeruginosa 262-101856, clinical isolate
[18] = P. aeruginosa 264-104354, clinical isolate
[19] = P. aeruginosa 101243, colistin-resistant
[20] = P. aeruginosa 114228, colistin-resistant
[21] = E. coli 94393, colistin-resistant
[22] = E. coli 94474, colistin-resistant

MIC [1]: >128 µg/mL
MICcompound [2]: >128 µg/mL
MIC [3]: >128 µg/mL
MIC [4]: >128 µg/mL
MICcompound [5]: >128 µg/mL
Compound: CCCCCCCC(=O)N[C@@H](CN)C(=O)N[C@H](C(=O)N[C@@H](CC(=O)O)C(=O)N[C@H]1CCNC(=O)[C@H]([C@@H](C)O)NC(=O)[C@H](CN)NC(=O)[C@H](CN)NC(=O)[C@H](CC(C)C)NC(=O)[C@@H](Cc2ccccc2)NC(=O)[C@H](CN)NC1=O)[C@@H](C)O [Compound 3] (Octanoyl-[Dap]TD[Dab][Dap][dF]L[Dap][Dap]T; lactam 4-C)
CC50 in HK-2 ([6]; 48 h): 215.5 µM
CC50 in RPTEC/TERT1 [7]: 627.2 µM

Compound: CCCCCCCC(=O)N[C@@H](CCN)C(=O)N[C@H](C(=O)N[C@@H](CC(=O)O)C(=O)N[C@H]1CCNC(=O)[C@H]([C@@H](C)O)NC(=O)[C@H](CCN)NC(=O)[C@H](CCN)NC(=O)[C@H](CC(C)C)NC(=O)[C@@H](Cc2ccccc2)NC(=O)[C@H](CCN)NC1=O)[C@@H](C)O [Compound 4] (Octanoyl-[Dab]TD[Dab][Dab][dF]L[Dab][Dab]T; lactam 4-C)
CC50 in HK-2 [6]: 236.1 µM
CC50 in HK-2 ([6]; 48 h): 236.8 µM
CC50 in RPTEC/TERT1 [7]: 238.8 µM

Compound: CCCCCCCC(=O)N[C@@H](CCN)C(=O)N[C@H](C(=O)N[C@@H](CCN)C(=O)N[C@H]1CCNC(=O)[C@H]([C@@H](C)O)NC(=O)[C@H](CCN)NC(=O)[C@H](CCN)NC(=O)[C@H]([C@@H](C)O)NC(=O)[C@@H]([C@H](C)O)NC(=O)[C@H](CCN)NC1=O)[C@@H](C)O [Compound F230] (Octanoyl-[Dab]T[Dab][Dab][Dab][dT]T[Dab][Dab]T; lactam 4-C)
CC50 in HK-2 ([6]; 48 h): 263.1 µM
CC50 in RPTEC/TERT1 [7]: 471.4 µM

Compound: Polymyxin B [PMB]
mean protein binding [8]: > 90%
median protein binding [8]: 58%
MIC [1, 13]: 8 µg/mL
MIC ([1]; A. baumannii 110193): 1 µg/mL
MIC ([1]; A. baumannii AB027): 0.25 µg/mL
MIC ([1]; A. baumannii ATCC 17978, wild-type): 2 µg/mL
toxicity [9]: lack of toxicity
toxicity [10]: lack of toxicity
MIC ([11]; E. cloacae 117029): 0.5 µg/mL
MIC [11, 14]: >128 µg/mL
MIC [12, 15]: 128 µg/mL
MIC ([12]; K. pneumoniae 116381): 1 µg/mL
MIC [3, 16]: ≤0.063 µg/mL
MIC [3, 17]: 0.5 µg/mL
MIC [3, 18]: 2 µg/mL
MIC [3, 19]: >128 µg/mL
MIC [3, 20]: 64 µg/mL
MIC ([3]; P. aeruginosa PAO1, wild-type, CAMHB, overnight 37°C): 1 µg/mL
MIC [4, 21]: 4 µg/mL
MIC [4, 22]: 16 µg/mL
MIC ([4]; E. coli 107115): 0.25 µg/mL
MIC ([4]; E. coli 131629): ≤0.25 µg/mL
MIC ([4]; E. coli ATCC 25922, wild-type): 0.5 µg/mL

Compound: CC[C@H](C)CCCCC(=O)N[C@@H](CCN)C(=O)N[C@H](C(=O)N[C@@H](CCN)C(=O)N[C@H]1CCNC(=O)[C@H]([C@@H](C)O)NC(=O)[C@H](CCN)NC(=O)[C@H](CCN)NC(=O)[C@H](CC(C)C)NC(=O)[C@@H](CC(C)C)NC(=O)[C@H](CCN)NC1=O)[C@@H](C)O [Colistin, colistin] (X1-[Dab]T[Dab][Dab][Dab][dL]L[Dab][Dab]T; lactam 4-C (inferred); N-terminus assumed)
MIC [1, 13]: 4 µg/mL (≈ 3.42 µM)
MIC ([1]; A. baumannii 110193): 0.5 µg/mL (≈ 0.428 µM)
MIC ([1]; A. baumannii AB027): 0.25 µg/mL (≈ 0.214 µM)
MIC ([1]; A. baumannii AB031): 0.25 µg/mL (≈ 0.214 µM)
MIC ([11]; E. cloacae 117029): 0.25 µg/mL (≈ 0.214 µM)
MIC [11, 14]: >16 µg/mL
MIC [12, 15]: 256 µg/mL (≈ 219 µM)
MIC ([12]; K. pneumoniae 116381): 1 µg/mL (≈ 0.855 µM)
MIC [3, 16]: 0.5 µg/mL (≈ 0.428 µM)
MIC [3, 17]: 2 µg/mL (≈ 1.71 µM)
MIC [3, 18]: 1 µg/mL (≈ 0.855 µM)
MIC [3, 19]: 1024 µg/mL (≈ 876 µM)
MIC [3, 20]: 4 µg/mL (≈ 3.42 µM)
MIC [4, 21]: 4 µg/mL (≈ 3.42 µM)
MIC [4, 22]: 16 µg/mL (≈ 13.7 µM)
MIC ([4]; E. coli 107115): 0.125 µg/mL (≈ 0.107 µM)
MIC ([4]; E. coli 131629): ≤0.25 µg/mL

Compound: CN(C)c1cc(CNCC(C)(C)C)c(O)c2c1C[C@H]1C[C@H]3[C@H](N(C)C)C(O)=C(C(N)=O)C(=O)[C@@]3(O)C(O)=C1C2=O [OMC, omadacyline]
Resistance phenotype (antibiotic susceptibility profile) ([1]; A. baumannii AB027): 1
Resistance phenotype (antibiotic susceptibility profile) ([1]; A. baumannii AB031): 2
Resistance phenotype of MDR clinical isolates (antibiotic susceptibility value) ([11]; E. cloacae 117029, Table S4): 4
Resistance phenotype (antibiotic susceptibility profile) ([12]; K. pneumoniae 113250): 2
Resistance phenotype (antibiotic susceptibility profile) ([12]; K. pneumoniae 116381): 4
Resistance phenotype (antibiotic susceptibility profile) ([3]; P. aeruginosa 259-96916): 64
Resistance phenotype (antibiotic susceptibility profile) ([3]; P. aeruginosa 262-101856): 64
Resistance phenotype (antibiotic susceptibility profile) ([3]; P. aeruginosa 264-104354): 64
Resistance phenotype (antibiotic susceptibility profile) ([3]; P. aeruginosa 114228): 128
Resistance phenotype of MDR clinical isolates (antibiotic susceptibility value) ([4]; E. coli 94393 (mcr-1 +)): 4
Resistance phenotype of MDR clinical isolates (antibiotic susceptibility value) ([4]; E. coli 94474 (mcr-1 +)): 16
Resistance phenotype of MDR clinical isolates (antibiotic susceptibility value) ([4]; E. coli 107115): 4

Compound: CCCCCCCC(=O)N[C@@H](CNC(=N)N)C(=O)N[C@H](C(=O)N[C@@H](CNC(=N)N)C(=O)N[C@H]1CCNC(=O)[C@H]([C@@H](C)O)NC(=O)[C@H](CNC(=N)N)NC(=O)[C@H](CNC(=N)N)NC(=O)[C@H](CC(C)C)NC(=O)[C@@H](Cc2ccccc2)NC(=O)[C@H](CNC(=N)N)NC1=O)[C@@H](C)O [Compound 2] (Octanoyl-[Agp]T[Agp][Dab][Agp][dF]L[Agp][Agp]T; lactam 4-C)
CC50 in HK-2 ([6]; 48 h): 26.9 µM
CC50 in RPTEC/TERT1 [7]: 28 µM
